From publication PMC12566046, “Arylpiperazinyl-Benzocycloheptapyrrole-Carboxamides Endowed with Dual Anticancer and Antiviral Activities” (Molecules, 2025)
Like-named read-outs stand apart in the source and are kept apart here.

Columns and labels:
[1] = tested on: CCRF-CEM (leukemia cell line); test: NCI-60 single-dose assay; type: cell-based, human; settings: for inhibition at 10 µM: Homo sapiens, read-out: growth inhibition (GI%) and cytotoxicity (negative values)
How it was run: (§1)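 Cytotoxicity was screened at a single dose across the NCI-60 human tumour cell panel, which covers leukemia, melanoma and lung, colon, CNS, ovarian, renal, prostate and breast cancers.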

[2] = tested on: LOX IMVI (melanoma cell line); test: NCI-60 single-dose assay; type: cell-based, human
How it was run: as §1

[3] = tested on: BT-549 (breast cancer cell line); test: NCI-60 single-dose assay; type: cell-based, human; settings: for inhibition at 10 µM: Homo sapiens, BT-549, read-out: growth inhibition (GI%) and cytotoxicity (negative values)
How it was run: as §1

[4] = tested on: MDA-MB-231/ATCC (breast cancer cell line); test: NCI-60 single-dose assay; type: cell-based, human; settings: for inhibition at 10 µM: Homo sapiens, MDA-MB-231, read-out: growth inhibition (GI%) and cytotoxicity (negative values)
How it was run: as §1

[5] = tested on: HCT-15 (colon cancer cell line); test: NCI-60 single-dose assay; type: cell-based, human
How it was run: as §1

[6] = tested on: NCI-H226 (non-small cell lung cancer cell line); test: NCI-60 single-dose assay; type: cell-based, human; settings: for inhibition at 10 µM: Homo sapiens, NCI-H226, read-out: growth inhibition (GI%) and cytotoxicity (negative values)
How it was run: as §1

[7] = tested on: HCT-116 (colon cancer cell line); test: NCI-60 single-dose assay; type: cell-based, human
How it was run: as §1

[8] = tested on: T-47D (breast cancer cell line); test: NCI-60 single-dose assay; type: cell-based, human; settings: for inhibition at 10 µM: Homo sapiens, T47D, read-out: growth inhibition (GI%) and cytotoxicity (negative values)
How it was run: as §1

[9] = tested on: MOLT-4 (leukemia cell line); test: NCI-60 single-dose assay; type: cell-based, human; settings: for inhibition at 10 µM: Homo sapiens, MOLT-4, read-out: growth inhibition (GI%) and cytotoxicity (negative values)
How it was run: as §1

[10] = tested on: NCI-H522 (non-small cell lung cancer cell line); test: NCI-60 single-dose assay; type: cell-based, human; settings: for inhibition at 10 µM: Homo sapiens, NCI-H522, read-out: growth inhibition (GI%) and cytotoxicity (negative values)
How it was run: as §1

[11] = tested on: NCI-H460 (non-small cell lung cancer cell line); test: NCI-60 single-dose assay; type: cell-based, human
How it was run: as §1

[12] = tested on: 786-0 (renal cancer cell line); test: NCI-60 single-dose assay; type: cell-based, human
How it was run: as §1

[13] = tested on: UO-31 (renal cancer cell line); test: NCI-60 single-dose assay; type: cell-based, human; settings: for inhibition at 10 µM: Homo sapiens, UO-31, read-out: growth inhibition (GI%) and cytotoxicity (negative values)
How it was run: as §1

NCI-60 cell line panel = test: NCI-60 single-dose assay, whole panel; type: cell-based, human; settings: summary over the panel
How it was run: as §1

[14] = tested on: ZIKV, strain Brazil/2016/INMI1; test: ZIKV viral yield reduction assay on Huh-7 cells; type: cell-based, Zika virus; settings: preliminary screening (50, 5, 0.5 μM), Huh-7, read-out: ZIKV/Huh‐7 EC50
How it was run: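 Huh-7 cells infected with ZIKV at MOI 1 for 2 h at 37 °C, compounds added right after infection in duplicate at 50, 5 and 0.5 μM. Supernatants taken at 48 h and titrated by plaque assay on VERO E6 under carboxymethyl cellulose with crystal violet staining. % inhibition from PFU/mL versus DMSO-treated control; SI = CC50/EC50.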

in vitro = settings: African green monkey
SR (leukemia cell line) = test: NCI-60 single-dose assay; type: cell-based, human
How it was run: as §1

[15] = tested on: COLO 205 (colon cancer cell line); test: NCI-60 single-dose assay; type: cell-based, human; settings: human
How it was run: as §1

[16] = tested on: UACC-257 (melanoma cell line); test: NCI-60 single-dose assay; type: cell-based, human; settings: human
How it was run: as §1

[17] = tested on: UACC-62 (melanoma cell line); test: NCI-60 single-dose assay; type: cell-based, human
How it was run: as §1

[18] = tested on: MDA-MB-468 (breast cancer cell line); test: NCI-60 single-dose assay; type: cell-based, human; settings: human
How it was run: as §1

[19] = tested on: MDA-MB-435 (melanoma cell line); test: NCI-60 single-dose assay; type: cell-based, human
How it was run: as §1

[20] = tested on: K-562 (leukemia cell line); test: NCI-60 single-dose assay; type: cell-based; settings: Homo sapiens, K562, read-out: growth inhibition (GI%) and cytotoxicity (negative values)
Text: We first evaluated the cytotoxic activity of tricyclic-pyrrole carboxamides 1–20 using the NCI-60 cell line panel, representing nine different human cancers: leukemia, melanoma, and cancers of the lung, colon, central nervous system (CNS), ovary, kidney, prostate, and breast (the one-dose graph for compounds 1–20 is reported in Supplementary Materials, Figures S43–S62). Compounds 1, 5, 10, 11, 17, and 20 satisfied pre-determined threshold inhibition criteria in a minimum number of cell lines; therefore, they were also tested in the full five-dose assay (Figures S63–S68 in the Supplementary Materials).

[21] = tested on: IAV strain A/PR/8/34 (H1N1); test: microbe, parasite or virus in culture; settings: Influenza A virus, MDCK, read-out: IAV/MDCK EC50

Row | Compound | growth inhibition (GI%) reached against cancer cell lines of the NCI-60 panel (NCI-60 cell line panel) | CC50 at 24 h (in vitro) | inhibition at 10 µM [1] | inhibition at 10 µM [3] | inhibition at 10 µM [4] | growth inhibition (GI%) and cytotoxicity (negative values) [15] | inhibition at 10 µM [6] | growth inhibition (GI%) and cytotoxicity (negative values) [16] | inhibition at 10 µM [8] | inhibition at 10 µM [9] | inhibition at 10 µM [10] | growth inhibition (GI%) and cytotoxicity (negative values) [18] | inhibition at 10 µM [13] | inhibition at 10 µM [20] | EC50 ([14]; Zika virus) | also measured
1 | N-(3-(4-Benzylpiperazin-1-yl)propyl)-2-chloro-1,4,5,6-tetrahydrobenzo[6,7]cyclohepta[1,2-b]pyrrole-2-carboxamide [Compound 11] | > 90% |  |  |  |  |  |  |  |  |  |  |  |  |  |  | growth inhibition (GI%) and cytotoxicity (negative values) ([1]; 10^−5 M, single dose): 76.14%; growth inhibition (GI%) and cytotoxicity (negative values) ([2]; LOX IMVI, 10^−5 M, single dose): 99.73%; growth inhibition (GI%) and cytotoxicity (negative values) ([3]; BT-549, 10^−5 M, single dose): – (GI% values < 60% and no cytotoxicity); growth inhibition (GI%) and cytotoxicity (negative values) ([4]; MDA-MB-231/ATCC, 10^−5 M, single dose): 61.71%; growth inhibition (GI%) and cytotoxicity (negative values) ([5]; HCT-15, 10^−5 M, single dose): 84.78%; growth inhibition (GI%) and cytotoxicity (negative values) ([6]; NCI-H226, 10^−5 M, single dose): 64.87%; growth inhibition (GI%) and cytotoxicity (negative values) ([7]; HCT-116, 10^−5 M, single dose): 96.84%; growth inhibition (GI%) and cytotoxicity (negative values) ([8]; T-47D, 10^−5 M, single dose): 66.07%; growth inhibition (GI%) and cytotoxicity (negative values) ([9]; MOLT-4, 10^−5 M, single dose): 99.74%; growth inhibition (GI%) and cytotoxicity (negative values) ([10]; NCI-H522, 10^−5 M, single dose): 82.24%; growth inhibition (GI%) and cytotoxicity (negative values) ([11]; NCI-H460, 10^−5 M, single dose): 98.58%; growth inhibition (GI%) and cytotoxicity (negative values) ([12]; 786-0, 10^−5 M, single dose): 72.88%; growth inhibition (GI%) and cytotoxicity (negative values) ([13]; UO-31, 10^−5 M, single dose): 63.12%; EC50 [14]: 3.49 µM
2 | CCN1CCC[C@H]1CNC(=O)c1[nH]c2c(c1Cl)CCCc1ccccc1-2 [Compound 1, (S)-3-Chloro-N-(1-ethyl-2-pyrrolidinylmethyl)-5,6-dihydro-4H-benzo[6,7]cyclohepta[1,2-b]pyrrol-2-carboxamide] | > 90% | 14.7 µM | 75.5% | 62.9% | 89% | −52.22% | < 60% | −55.18% | 66.2% | 96.2% | 73.5% | −3.75% | 83% | 94% | 2.07 µM | inhibition at 10 µM (SR (leukemia cell line); Homo sapiens, read-out: growth inhibition (GI%) and cytotoxicity (negative values)): 96.3%; growth inhibition (GI%) and cytotoxicity (negative values) ([2]; human): −25.00%; growth inhibition (GI%) and cytotoxicity (negative values) ([5]; human): −52.66%; growth inhibition (GI%) and cytotoxicity (negative values) ([7]; human): −25.27%; growth inhibition (GI%) and cytotoxicity (negative values) ([17]; human): −73.43%; growth inhibition (GI%) and cytotoxicity (negative values) ([19]; human): −78.15%; growth inhibition (GI%) and cytotoxicity (negative values) ([11]; human): −54.58%; growth inhibition (GI%) and cytotoxicity (negative values) ([12]; human): −22.61%; EC50 [21]: 17.7 µM
3 | O=C(NCCCN1CCN(c2ccccc2)CC1)c1cc2c([nH]1)-c1ccccc1CCC2 [Compound 10, N-(3-(4-Phenylpiperazin-1-yl)propyl)-1,4,5,6-tetrahydrobenzo[6,7]cyclohepta[1,2-b]pyrrole-2-carboxamide] | > 90% | 55.7 µM | 61.2% | < 60% | < 60% | −58.03% | 75.2% | −8.50% | 65.8% | < 60% | 71.4% | −13.75% | < 60% | 99.4% | 3.59 µM | growth inhibition (GI%) and cytotoxicity (negative values) (SR (leukemia cell line); human): −19.75%; inhibition at 10 µM ([2]; Homo sapiens, LOX IMVI, read-out: growth inhibition (GI%) and cytotoxicity (negative values)): 95.2%; inhibition at 10 µM ([5]; Homo sapiens, HCT-15, read-out: growth inhibition (GI%) and cytotoxicity (negative values)): 91.2%; inhibition at 10 µM ([7]; Homo sapiens, HCT-116, read-out: growth inhibition (GI%) and cytotoxicity (negative values)): 95.7%; inhibition at 10 µM ([17]; Homo sapiens, UACC-62, read-out: growth inhibition (GI%) and cytotoxicity (negative values)): < 60%; inhibition at 10 µM ([19]; Homo sapiens, MDA-MB-435, read-out: growth inhibition (GI%) and cytotoxicity (negative values)): 75.1%; inhibition at 10 µM ([11]; Homo sapiens, NCI-H460, read-out: growth inhibition (GI%) and cytotoxicity (negative values)): 90.7%; inhibition at 10 µM ([12]; Homo sapiens, 786-0, read-out: growth inhibition (GI%) and cytotoxicity (negative values)): 68.7%
